Experiments:
[1] = in vivo; cited from earlier work
mouse renin = test: renin inhibitory potency against mouse renin; format: biochemical; conditions: compared with human renin
rat renin = biological target: T1, rat renin (Rattus norvegicus, UniProt P08424); test: renin inhibitory potency against rat renin; format: biochemical; conditions: loss of potency against rat renin
T1 sequence (P08424 65-402): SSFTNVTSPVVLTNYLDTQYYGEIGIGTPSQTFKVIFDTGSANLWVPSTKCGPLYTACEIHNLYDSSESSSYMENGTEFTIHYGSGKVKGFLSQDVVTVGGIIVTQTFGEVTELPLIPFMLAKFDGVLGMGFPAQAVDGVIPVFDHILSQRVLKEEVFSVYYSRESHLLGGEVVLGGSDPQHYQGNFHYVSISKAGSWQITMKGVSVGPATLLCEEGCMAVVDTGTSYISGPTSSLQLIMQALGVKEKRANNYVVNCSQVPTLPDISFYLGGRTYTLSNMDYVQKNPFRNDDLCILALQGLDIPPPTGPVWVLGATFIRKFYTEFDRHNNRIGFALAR

dog renin = biological target: T2, dog renin (Canis lupus familiaris, UniProt Q6DYE7); test: renin inhibitory potency against dog renin; format: biochemical; conditions: compared with human renin
T2 sequence (Q6DYE7 66-403): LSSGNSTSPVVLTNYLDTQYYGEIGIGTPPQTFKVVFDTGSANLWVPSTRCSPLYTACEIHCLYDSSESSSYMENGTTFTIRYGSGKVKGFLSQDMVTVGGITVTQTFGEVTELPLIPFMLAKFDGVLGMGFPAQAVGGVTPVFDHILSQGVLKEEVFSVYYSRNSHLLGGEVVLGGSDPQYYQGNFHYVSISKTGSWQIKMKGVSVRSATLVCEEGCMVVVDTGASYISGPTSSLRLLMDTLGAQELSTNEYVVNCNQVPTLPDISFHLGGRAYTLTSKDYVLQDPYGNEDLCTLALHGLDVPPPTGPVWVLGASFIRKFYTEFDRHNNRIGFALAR

| Structure (SMILES) | effect on weight loss [1] | potency against mouse renin (mouse renin) | weaker as a rat renin inhibitor (rat renin) | potency against dog renin (dog renin) |
| --- | --- | --- | --- | --- |
| CC1(C)O[C@@H]2[C@@H](CO[C@@]3(COS(N)(=O)=O)OC(C)(C)O[C@@H]23)O1 [Topiramate] | increase weight loss | – | – | – |
| NS(=O)(=O)Cc1noc2ccccc12 [Zonisamide] | lead to weight loss | – | – | – |
| COCCCOc1cc(C[C@@H](C[C@H](N)[C@@H](O)C[C@H](C(=O)NCC(C)(C)C(N)=O)C(C)C)C(C)C)ccc1OC [aliskiren, 2(S),4 (S),5(S),7(S)—N-(3-amino-2,2-dimethyl-3-oxopropyl)-2,7-di(1-methylethyl)-4-hydroxy-5-amino-8-[4-methoxy-3-(3-methoxy-propoxy)phenyl]-octanamide] | – | reasonable potency | 1-2 orders of magnitude | reasonable potency |

From US20080255084A1, “Combination of Organic Compounds” (priority 2005, published 2008)
